Experimental data published in ChEMBL document CHEMBL1147624, “Inhibitors of hepatitis C virus NS3.4A protease 2. Warhead SAR and optimization” (Bioorg Med Chem Lett, 2004).
Where a SMILES comes first, the peptide text is derived from it. [ ]: non-standard residue; d: D form. The star is where a group is joined. Pyrazinecarbonyl = O=C(c1cnccn1)*; Hyp = O=C(O)[C@@H]1C[C@@H](O)CN1; Abu = CC[C@H](N)C(=O)O; Bn = c1ccc(C*)cc1

Legend:
[1] = biological target: NS3 (Hepatitis C virus, UniProt A3EZJ3); assay: Binding inhibition of hepatitis C virus NS3.4A protease 2 using p-nitroaniline assay (pNA); parameters: species or system Hepacivirus hominis
NS3, sequence (A3EZJ3 whole entry): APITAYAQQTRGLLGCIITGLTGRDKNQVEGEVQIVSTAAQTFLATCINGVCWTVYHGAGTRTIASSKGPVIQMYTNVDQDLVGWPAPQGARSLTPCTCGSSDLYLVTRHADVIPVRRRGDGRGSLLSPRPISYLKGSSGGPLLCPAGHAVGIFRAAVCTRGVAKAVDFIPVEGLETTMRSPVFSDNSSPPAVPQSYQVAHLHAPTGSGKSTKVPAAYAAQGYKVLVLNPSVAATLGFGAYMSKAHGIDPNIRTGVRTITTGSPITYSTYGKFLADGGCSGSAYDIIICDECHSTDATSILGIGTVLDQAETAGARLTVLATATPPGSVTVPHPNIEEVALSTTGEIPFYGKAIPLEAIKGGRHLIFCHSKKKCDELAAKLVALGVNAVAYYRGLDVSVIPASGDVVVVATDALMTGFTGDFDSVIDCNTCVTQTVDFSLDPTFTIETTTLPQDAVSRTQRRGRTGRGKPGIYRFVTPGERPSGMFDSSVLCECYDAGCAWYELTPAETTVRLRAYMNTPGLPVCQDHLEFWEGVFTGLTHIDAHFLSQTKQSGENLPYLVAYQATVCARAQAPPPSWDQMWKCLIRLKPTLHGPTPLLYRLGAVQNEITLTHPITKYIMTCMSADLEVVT

[2] = biological target: T1, Hepatitis C virus serine protease, NS3/NS4A (Hepatitis C virus, UniProt D2K2A8+A3EZI9); assay: Binding inhibition of hepatitis C virus NS3.4A protease 2 using a reverse phase HPLC based assay; type: protein-complex assay, Hepacivirus hominis
T1 sequence (D2K2A8 whole entry): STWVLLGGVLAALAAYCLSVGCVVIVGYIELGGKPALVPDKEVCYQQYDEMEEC
T1 sequence (A3EZI9 whole entry): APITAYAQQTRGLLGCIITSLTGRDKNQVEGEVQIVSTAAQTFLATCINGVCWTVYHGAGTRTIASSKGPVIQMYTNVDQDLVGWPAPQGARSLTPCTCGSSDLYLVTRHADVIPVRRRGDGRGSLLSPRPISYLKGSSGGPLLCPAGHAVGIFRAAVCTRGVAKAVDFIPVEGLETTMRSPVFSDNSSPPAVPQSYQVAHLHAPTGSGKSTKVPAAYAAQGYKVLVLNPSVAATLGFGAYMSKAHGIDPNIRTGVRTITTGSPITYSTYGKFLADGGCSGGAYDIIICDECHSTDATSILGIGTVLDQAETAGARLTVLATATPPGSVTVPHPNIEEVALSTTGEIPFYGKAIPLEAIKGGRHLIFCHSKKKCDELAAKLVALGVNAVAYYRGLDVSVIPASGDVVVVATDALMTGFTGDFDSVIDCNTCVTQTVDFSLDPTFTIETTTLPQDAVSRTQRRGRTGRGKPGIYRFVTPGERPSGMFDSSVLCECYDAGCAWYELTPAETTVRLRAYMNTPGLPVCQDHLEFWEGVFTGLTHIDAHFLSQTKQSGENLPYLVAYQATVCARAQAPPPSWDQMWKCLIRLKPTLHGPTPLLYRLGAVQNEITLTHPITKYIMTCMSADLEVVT

[3] = biological target: T1, Hepatitis C virus serine protease, NS3/NS4A; assay: Binding inhibition of hepatitis C virus NS3.4A protease 2 using p-nitroaniline assay (pNA); <0.2 (0.18); type: protein-complex assay, Hepacivirus hominis
[4] = tested on: Huh-7; assay: Reduction of HCV RNA in 48 hr compound treated Huh 7 cells was determined by quantitative RT-PCR-based […] assay; type: functional; settings: Homo sapiens, Huh-7, 48 h
[5] = biological target: T1, Hepatitis C virus serine protease, NS3/NS4A; assay: Binding inhibition of hepatitis C virus NS3.4A protease 2 using p-nitroaniline assay (pNA); <0.2 (0.10); type: protein-complex assay, Hepacivirus hominis
[6] = tested on: Huh-7; assay: Cytotoxicity of compound was determined by MTS-based cell viability assay in Huh 7 cells; type: functional; settings: Homo sapiens
[7] = biological target: T1, Hepatitis C virus serine protease, NS3/NS4A; assay: Binding inhibition of hepatitis C virus NS3.4A protease 2 using p-nitroaniline assay (pNA); <0.2 (0.15); type: protein-complex assay, Hepacivirus hominis
[8] = biological target: T1, Hepatitis C virus serine protease, NS3/NS4A; assay: Binding inhibition of hepatitis C virus NS3.4A protease 2 using a reverse phase HPLC based assay; <0.2 (0.15); type: protein-complex assay, Hepacivirus hominis
[9] = biological target: T1, Hepatitis C virus serine protease, NS3/NS4A; assay: Binding inhibition of hepatitis C virus NS3.4A protease 2 was determined; type: protein-complex assay, Hepacivirus hominis
[10] = biological target: T1, Hepatitis C virus serine protease, NS3/NS4A; assay: Binding inhibition of hepatitis C virus NS3.4A protease 2 using p-nitroaniline assay (pNA); <0.2 (0.03); type: protein-complex assay, Hepacivirus hominis

| Structure (SMILES) | Ki [1] [µM] | IC50 [4] [µM] | CC50 [6] [µM] | also measured |
| --- | --- | --- | --- | --- |
| CCCC(NC(=O)[C@@H]1C[C@@H](OC(=O)N2CCc3ccccc3C2)CN1C(=O)[C@H](NC(=O)[C@H](NC(=O)c1cnccn1)C(C)C)C(C)C)C(=O)C(=O)N[C@@H](C)C(=O)c1cccc2ccccc12 (stereo partly drawn) |  |  |  | IC50 [2]: 0.75 µM; Ki [3]: < 0.2 µM |
| CCC(NC(=O)[C@@H]1C[C@@H](OCc2ccccc2)CN1C(=O)[C@H](NC(=O)[C@H](NC(=O)c1cnccn1)C(C)C)C(C)C)C(=O)C(F)(F)F (stereo partly drawn) | > 50 |  |  |  |
| CCCC(NC(=O)[C@@H]1C[C@@H](OC(=O)N2CCc3ccccc3C2)CN1C(=O)[C@H](NC(=O)[C@H](NC(=O)c1cnccn1)C(C)C)C(C)C)C(=O)C(=O)N[C@@H](C)c1ccccc1 (stereo partly drawn) |  | > 0.31 | > 16 | IC50 [2]: 0.22 µM; Ki [5]: < 0.2 µM |
| CCCC(NC(=O)[C@@H]1C[C@@H](OC(=O)N2CCc3ccccc3C2)CN1C(=O)[C@H](NC(=O)[C@H](NC(=O)c1cnccn1)C(C)C)C(C)C)C(=O)C(=O)NCC(=O)O (stereo partly drawn) |  | > 10 | > 100 | Ki [7]: < 0.2 µM; IC50 [8]: 0.037 µM |
| CC[C@@H](C=O)NC(=O)[C@@H]1CC(OC(=O)C2CCc3ccccc3C2)CN1C(=O)[C@@H](NC(=O)[C@@H](NC(=O)c1cnccn1)C(C)C)C(C)C (stereo partly drawn) |  |  |  | Ki [9]: 0.89 µM |
| CCCC(NC(=O)[C@@H]1C[C@@H](OC(=O)N2CCc3ccccc3C2)CN1C(=O)[C@H](NC(=O)[C@H](NC(=O)c1cnccn1)C(C)C)C(C)C)C(=O)C(=O)NC1CC1 (stereo partly drawn) |  | > 2.3 | > 100 | IC50 [2]: 0.42 µM; Ki [7]: < 0.22 µM |
| CC[C@H](NC(=O)[C@@H]1C[C@@H](OCc2ccccc2)CN1C(=O)[C@@H](NC(=O)[C@@H](NC(=O)c1cnccn1)C(C)C)C(C)C)C(=O)C(C)=O | 50 |  |  |  |
| CCC(NC(=O)[C@@H]1C[C@@H](OCc2ccccc2)CN1C(=O)[C@H](NC(=O)[C@H](NC(=O)c1cnccn1)C(C)C)C(C)C)C(=O)CCl (stereo partly drawn) | > 50 |  |  |  |
| CCCC(NC(=O)[C@@H]1C[C@@H](OC(=O)N2CCc3ccccc3C2)CN1C(=O)[C@H](NC(=O)[C@H](NC(=O)c1cnccn1)C(C)C)C(C)C)C(=O)C(=O)NCc1ccccc1 (stereo partly drawn) |  | > 3.2 | > 30 | IC50 [2]: 0.22 µM; Ki [7]: < 0.2 µM |
| CC[C@H](NC(=O)[C@@H]1C[C@@H](OCc2ccccc2)CN1C(=O)[C@@H](NC(=O)[C@@H](NC(=O)c1cnccn1)C(C)C)C(C)C)C(=O)c1nnc(-c2ccccc2)o1 | 35 |  |  |  |
| CC[C@H](NC(=O)[C@@H]1C[C@@H](OCc2ccccc2)CN1C(=O)[C@@H](NC(=O)[C@@H](NC(=O)c1cnccn1)C(C)C)C(C)C)C(=O)C(=O)N[C@@H](C)c1ccccc1 [listing 2 of 2 here] |  |  | > 100 |  |
| CCCC(NC(=O)[C@@H]1C[C@@H](OC(=O)N2CCc3ccccc3C2)CN1C(=O)[C@H](NC(=O)[C@H](NC(=O)c1cnccn1)C(C)C)C(C)C)C(=O)C(=O)NC(C)C(=O)O (stereo partly drawn) |  |  |  | IC50 [2]: 0.13 µM; Ki [3]: 0.2 µM |
| CC[C@H](NC(=O)[C@@H]1C[C@@H](OCc2ccccc2)CN1C(=O)[C@@H](NC(=O)[C@@H](NC(=O)c1cnccn1)C(C)C)C(C)C)C(=O)O (Pyrazinecarbonyl-VV[Hyp](Bn)[Abu]-OH) | > 50 |  |  |  |
| CCOC(=O)C(F)(F)C(=O)C(CC)NC(=O)C1CC(OCc2ccccc2)CN1C(=O)[C@H](NC(=O)[C@H](NC(=O)c1cnccn1)C(C)C)C(C)C (single isomer, unassigned) | > 50 |  |  |  |
| CCCC(NC(=O)[C@@H]1CC(OC(=O)N2CCc3ccccc3C2)CN1C(=O)[C@H](NC(=O)[C@H](NC(=O)c1cnccn1)C(C)C)C(C)C)C(=O)C(=O)c1ccccc1 (single isomer, unassigned) |  | > 10 | > 100 | IC50 [2]: 0.026 µM; Ki [10]: < 0.2 µM |

The next lines start with results.

| Ki [1] [µM] | IC50 [4] [µM] | Structure (SMILES) | CC50 [6] [µM] | also measured |
| --- | --- | --- | --- | --- |
| 17.5 |  | CCC(NC(=O)[C@@H]1C[C@@H](OCc2ccccc2)CN1C(=O)[C@H](NC(=O)[C@H](NC(=O)c1cnccn1)C(C)C)C(C)C)C(=O)C(F)(F)C(F)(F)F (stereo partly drawn) |  |  |
| 5.23 |  | CCCC(NC(=O)[C@@H]1C[C@@H](OC(=O)N2CCc3ccccc3C2)CN1C(=O)[C@H](NC(=O)[C@H](NC(=O)c1cnccn1)C(C)C)C(C)C)C(=O)C(=O)N(C)CC(=O)O (stereo partly drawn) |  |  |
| 4 |  | CC[C@H](NC(=O)[C@@H]1C[C@@H](OCc2ccccc2)CN1C(=O)[C@@H](NC(=O)[C@@H](NC(=O)c1cnccn1)C(C)C)C(C)C)C(=O)C(=O)NCc1ccccc1 |  |  |
| 0.54 |  | CCCC(NC(=O)[C@@H]1C[C@@H](OC(=O)N2CCc3ccccc3C2)CN1C(=O)[C@H](NC(=O)[C@H](NC(=O)c1cnccn1)C(C)C)C(C)C)C(=O)C(=O)NC(CO)C(=O)O (stereo partly drawn) |  |  |
| 32 |  | CC[C@H](NC(=O)[C@@H]1C[C@@H](OCc2ccccc2)CN1C(=O)[C@@H](NC(=O)[C@@H](NC(=O)c1cnccn1)C(C)C)C(C)C)C(=O)C(=O)N1CCCC1 |  |  |
| 10 |  | CC[C@H](NC(=O)[C@@H]1C[C@@H](OCc2ccccc2)CN1C(=O)[C@@H](NC(=O)[C@@H](NC(=O)c1cnccn1)C(C)C)C(C)C)C(=O)C(=O)c1ccccc1 |  |  |
| 0.8 | > 10.2 | CCCC(NC(=O)[C@@H]1C[C@@H](OC(=O)N2CCc3ccccc3C2)CN1C(=O)[C@H](NC(=O)[C@H](NC(=O)c1cnccn1)C(C)C)C(C)C)C(=O)C(=O)NC1CCC1 (stereo partly drawn) | > 100 |  |
| 2.7 |  | CC[C@H](NC(=O)[C@@H]1C[C@@H](OCc2ccccc2)CN1C(=O)[C@@H](NC(=O)[C@@H](NC(=O)c1cnccn1)C(C)C)C(C)C)C(=O)C(=O)C(C)C |  |  |
| 1.12 |  | CCCC(NC(=O)[C@@H]1C[C@@H](OC(=O)N2CCc3ccccc3C2)CN1C(=O)[C@H](NC(=O)[C@H](NC(=O)c1cnccn1)C(C)C)C(C)C)C(=O)C(=O)NCC#N (stereo partly drawn) |  |  |
| 17 |  | CC[C@H](NC(=O)[C@@H]1C[C@@H](OCc2ccccc2)CN1C(=O)[C@@H](NC(=O)[C@@H](NC(=O)c1cnccn1)C(C)C)C(C)C)C(=O)C(=O)N[C@H](C)c1ccccc1 |  |  |
| 4.72 |  | CCCC(NC(=O)[C@@H]1C[C@@H](OC(=O)N2CCc3ccccc3C2)CN1C(=O)[C@H](NC(=O)[C@H](NC(=O)c1cnccn1)C(C)C)C(C)C)C(=O)C(=O)NCc1ccco1 (stereo partly drawn) |  |  |
| 0.52 | > 10 | CCCC(NC(=O)[C@@H]1C[C@@H](OC(=O)N2CCc3ccccc3C2)CN1C(=O)[C@H](NC(=O)[C@H](NC(=O)c1cnccn1)C(C)C)C(C)C)C(=O)C(=O)NC(C)C (stereo partly drawn) | > 100 |  |
| 0.21 | > 10 | CCCC(NC(=O)[C@@H]1C[C@@H](OC(=O)N2CCc3ccccc3C2)CN1C(=O)[C@H](NC(=O)[C@H](NC(=O)c1cnccn1)C(C)C)C(C)C)C(=O)C(=O)NCCc1ccccc1 (stereo partly drawn) | > 100 | IC50 [2]: 0.52 µM |
| 5.76 |  | CCCC(NC(=O)[C@@H]1C[C@@H](OC(=O)N2CCc3ccccc3C2)CN1C(=O)[C@H](NC(=O)[C@H](NC(=O)c1cnccn1)C(C)C)C(C)C)C(=O)C(=O)NCC(=N)N (stereo partly drawn) |  |  |
| 0.92 | > 4.8 | CC[C@H](NC(=O)[C@@H]1C[C@@H](OCc2ccccc2)CN1C(=O)[C@@H](NC(=O)[C@@H](NC(=O)c1cnccn1)C(C)C)C(C)C)C(=O)C(=O)N[C@@H](C)c1ccccc1 [listing 1 of 2 here] |  |  |
| 6.9 |  | CCCC(NC(=O)[C@@H]1C[C@@H](OC(=O)N2CCc3ccccc3C2)CN1C(=O)[C@H](NC(=O)[C@H](NC(=O)c1cnccn1)C(C)C)C(C)C)C(=O)C(=O)NC(C)(C)C (stereo partly drawn) |  |  |
| 1.63 |  | CCCC(NC(=O)[C@@H]1C[C@@H](OC(=O)N2CCc3ccccc3C2)CN1C(=O)[C@H](NC(=O)[C@H](NC(=O)c1cnccn1)C(C)C)C(C)C)C(=O)C(=O)N(CC(=O)O)c1ccccc1 (stereo partly drawn) |  |  |
| 0.29 | > 10 | CCCC(NC(=O)[C@@H]1C[C@@H](OC(=O)N2CCc3ccccc3C2)CN1C(=O)[C@H](NC(=O)[C@H](NC(=O)c1cnccn1)C(C)C)C(C)C)C(=O)C(=O)NCc1nnn[nH]1 (stereo partly drawn) | > 100 |  |
| 16 |  | CC[C@@H](C=O)NC(=O)[C@@H]1C[C@@H](OCc2ccccc2)CN1C(=O)[C@@H](NC(=O)[C@@H](NC(=O)c1cnccn1)C(C)C)C(C)C (Pyrazinecarbonyl-VV[Hyp](Bn)[Abu]-aldehyde) |  |  |
| 1.6 |  | CCCC(NC(=O)[C@@H]1CC(OC(=O)N2CCc3ccccc3C2)CN1C(=O)[C@H](NC(=O)[C@H](NC(=O)c1cnccn1)C(C)C)C(C)C)C(=O)C(=O)N1C[C@@H]1c1ccccc1 (single isomer, unassigned) |  |  |
| 0.43 | > 10 | CCCC(NC(=O)[C@@H]1CC(OC(=O)N2CCc3ccccc3C2)CN1C(=O)[C@H](NC(=O)[C@H](NC(=O)c1cnccn1)C(C)C)C(C)C)C(=O)C(=O)Cc1ccccc1 (single isomer, unassigned) | > 100 |  |
| 0.97 | > 10.3 | CCCC(NC(=O)[C@@H]1CC(OC(=O)N2CCc3ccccc3C2)CN1C(=O)[C@H](NC(=O)[C@H](NC(=O)c1cnccn1)C(C)C)C(C)C)C(=O)C(=O)N1CCC1 (single isomer, unassigned) | > 100 |  |
